The source of these data is paper PMC6667281 (Biochemistry, 2019).

The target in test [1] is T1, CymD (Salinispora arenicola, UniProt A8M6W6). Briefly: prenyl donor in coupled pyrophosphate-release assay with purified CymD. It is filed as biochemical.
In test [2] the target is T1, CymD. As to the kind of experiment: ITC. It is filed as binding.

T1 sequence (A8M6W6 2-373): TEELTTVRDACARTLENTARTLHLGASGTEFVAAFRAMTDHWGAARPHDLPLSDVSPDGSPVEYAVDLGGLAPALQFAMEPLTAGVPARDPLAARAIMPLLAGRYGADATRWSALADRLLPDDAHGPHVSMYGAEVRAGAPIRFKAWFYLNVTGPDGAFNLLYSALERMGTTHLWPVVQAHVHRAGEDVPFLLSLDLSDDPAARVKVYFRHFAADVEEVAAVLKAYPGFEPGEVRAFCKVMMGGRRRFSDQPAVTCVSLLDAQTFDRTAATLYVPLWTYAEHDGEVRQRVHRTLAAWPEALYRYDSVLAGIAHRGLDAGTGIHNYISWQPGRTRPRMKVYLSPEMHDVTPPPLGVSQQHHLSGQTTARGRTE

Consider `CC(C)=CCOP(=O)(O)OP(=O)(O)O` [DMAPP], for which the “prenyl donor in coupled pyrophosphate-release assay with purified CymD” value on CymD [1] was “Specific activities of CymD with DMAPP and various prenyl acceptor substrates”.

`N[C@@H](Cc1c[nH]c2ccccc12)C(=O)O` [L-Trp] gave a Kd on CymD [2] of 4.4 ± 0.4 µM.

The term Kd denotes the constant that tells how readily two partners part at equilibrium.
